Experimental data: patent publication US4371537A, “Sulfur-substituted phenoxypyridines having antiviral activity” (The Dow Chemical Company, priority 1981, dated 1983)
Values after ≈ are worked out from the molar mass of the structure shown.

What was measured:
[1] = system: 20 different rhinoviruses; experiment: Summary of WI-38 tissue culture testing against 20 rhinoviruses; assay type: cell-based; settings: 25 μg/ml; of 20 rhinoviruses
Experimental: (§1) The test compound was dissolved in an appropriate solvent (generally dimethyl sulfoxide) and incubated at 56° C. for at least 15 minutes and this solution was then used to prepare various test solutions having the desired concentration of test compound in preheated WI maintenance medium (49% Eagles, 49% medium 199, 2% fetal calf serum and antibiotics).
(§2) Triplicate cell culture tubes (WI-38 human embryonic lung cell culture tubes) were fed with 1 ml of medium containing the compound at specified concentrations and inoculated with 3-300 TCID50 (3-300 times the tissue culture infective dose 50, i.e., the dose required to infect 50% of the cell cultures tested). Simultaneous viral titrations were performed. The tissue cultures were supplemented with fresh medium when necessary (around 3-4 days) until viral titrations were completed.
(§3) The cell culture tubes were examined dialy for cytopathic effect. […] Comparisons were made at that time with the percentage of cell sheet destruction in tubes containing virus compound mixtures. Observed differences of 75% or more were graded "+", 74-50% as "±", and less than 50% as "-" inhibition.

rhinovirus type 5 (RV-5) = experiment: Tissue culture testing, rhinovirus type 5 in HeLa cells; assay type: cell-based; settings: Enterovirus, 48 and 72 hours, NA = not active at the standard test conditions, read-out: RV-5: lowest concentration of the compound necessary to cause a 50 percent reduction in cytopathic effect
Experimental: (§4) Monolayered HeLa cells in 16 millimeter (mm) tissue culture dishes were treated with 1 ml of culture medium (Eagles medium supplemented with fetal calf serum) containing subject compound at an appropriate concentration or containing no compound at all. Culture media such as those described herein are more fully described in standard texts, as for example, Kuchler's Biochemical Methods in Cell Culture and Virology, Dowden, Hutchinson and Ross, Inc., Stroudsberg, PA (1977). Following treatment, cells were challenged with 0.05 ml of rhinovirus type 1A (RV-1A), rhinovirus type 2 (RV-2) or Coxsackie A21 virus (Cox A21) in culture medium. Some of the compounds were also tested against rhinovirus type 5 (RV-5), rhinovirus type 8 (RV-8) or rhinovirus type 64 (RV-64). Cell controls received no viruses.
(§5) ^2 Lowest concentration of the compound (μg/ml) necessary to cause

Cox A21 = experiment: Single Oral Dose test in mice challenged IP with Cox A21; assay type: in vivo, Swiss male mice; settings: >3.84 significant (95% confidence level)
Experimental: In addition, some of the compounds were tested in animals utilizing the following procedure, hereinafter referred to as the "Single Oral Dose" test. Swiss male mice, 8-12 grams in weight were challenged intraperitoneally (IP) with 0.2 ml of a normally lethal dose, i.e., a virus dose sufficient to cause […].80-100% mortality in infected animals within 10 days of challenge of Cox A21, in phosphate buffered saline containing 1% heat inactivated fetal calf serum. Three hours later mice were treated orally (P.O.) with 0.2 ml of compound suspended in 0.5% hydroxypropyl methylcellulose (Methocel) or with 0.2 ml of 0.5% Methocel containing no compound. […] Mice were observed daily for 7-10 days post-challenge and deaths recorded. A modified Mantel-Haenzel combined chi-square procedure was used to determine significant difference between virus control and treated groups. Chi-square values greater than 3.84 are considered significant (95% confidence level) in this test.

rhinovirus type 8 (RV-8) = experiment: Tissue culture testing, rhinovirus type 8 in HeLa cells; assay type: cell-based; settings: Enterovirus, 48 and 72 hours, NA = not active at the standard test conditions, read-out: RV-8: lowest concentration of the compound necessary to cause a 50 percent reduction in cytopathic effect
Experimental: as §4, §5

[2] = Cytotoxicity in tissue culture testing (HeLa monolayers); assay type: cell-based; settings: human; HeLa cells; observed at 48 and 72 hours post-treatment; read-out: Cytotoxicity: concentration of the compound found to be toxic to the cell
Experimental: as §4
^1 Cytotoxicity figures represent the concentration of the compound, […]

[3] = system: rhinovirus type 1A (RV-1A); experiment: Tissue culture testing, rhinovirus type 1A in HeLa cells; assay type: cell-based; settings: Enterovirus, 48 and 72 hours, NA = not active at the standard test conditions, read-out: RV-1A: lowest concentration of the compound necessary to cause a 50 percent reduction in cytopathic effect
Experimental: as §4, §5

rhinovirus type 2 (RV-2) = experiment: Tissue culture testing, rhinovirus type 2 in HeLa cells; assay type: cell-based; settings: Enterovirus, 48 and 72 hours, NA = not active at the standard test conditions, read-out: RV-2: lowest concentration of the compound necessary to cause a 50 percent reduction in cytopathic effect
Experimental: as §4, §5

[4] = system: rhinovirus type 64 (RV-64); experiment: Tissue culture testing, rhinovirus type 64 in HeLa cells; assay type: cell-based; settings: Enterovirus, 48 and 72 hours, NA = not active at the standard test conditions, read-out: RV-64: lowest concentration of the compound necessary to cause a 50 percent reduction in cytopathic effect
Experimental: as §4, §5

[5] = system: Coxsackie A21 virus (Cox A21); experiment: Tissue culture testing, Coxsackie A21 virus in HeLa cells; assay type: cell-based; settings: 48 and 72 hours, NA = not active at the standard test conditions, read-out: Cox A21: lowest concentration of the compound necessary to cause a 50 percent reduction in cytopathic effect
Experimental: as §4, §5

Coxsackie A21 virus = experiment: Continuous Oral Feeding test in mice challenged IP with Coxsackie A21 virus; assay type: in vivo; settings: po, 0.06 % in diet, 240 h
Experimental: Some of the compounds were also tested in animals utilizing the following procedure, hereainafter referred to as the "Continuous Oral Feeding" test. Coxsackie A21 virus grown on HeLa cells was administered at a concentration that produces 80 to 100% deaths in mice weighing 8 to 12 grams within 10 days, when the mice are injected (IP) with 0.2 ml of virus preparation. Mice were placed on diets containing test compound dispersed in plain commercially available rodent mash chow at a concentration of 0.06% (weight percent) on day 0. On day 1 the mice were challenged with the virus preparation, 0.2 ml/mouse, (IP). Deaths in both control and experimental groups were recorded for the 10 days and the results analyzed by a chi-square (.chi.^2) test. Chi-square values greater than 3.84 indicate the compound is active (95% confidence level).

Rhinovirus Type 10 = experiment: Inhibition of cytopathic effect in WI-38 cell culture tubes, rhinovirus type 10; assay type: cell-based; settings: Enterovirus; 12.5 μg/ml; WI-38 cells; read-out: Inhibition grade, Rhinovirus Type 10
Experimental: as §1, §2, §3

Rhinovirus Type 64 = experiment: Inhibition of cytopathic effect in WI-38 cell culture tubes, rhinovirus type 64; assay type: cell-based; settings: Enterovirus; 12.5 μg/ml; WI-38 cells; read-out: Inhibition grade, Rhinovirus Type 64
Experimental: as §1, §2, §3

Rhinovirus Type 19 = experiment: Inhibition of cytopathic effect in WI-38 cell culture tubes, rhinovirus type 19; assay type: cell-based; settings: Enterovirus; 12.5 μg/ml; WI-38 cells; read-out: Inhibition grade, Rhinovirus Type 19
Experimental: as §1, §2, §3

Rhinovirus Type 21 = experiment: Inhibition of cytopathic effect in WI-38 cell culture tubes, rhinovirus type 21; assay type: cell-based; settings: Enterovirus; 12.5 μg/ml; WI-38 cells; read-out: Inhibition grade, Rhinovirus Type 21
Experimental: as §1, §2, §3

Rhinovirus Type 13 = experiment: Inhibition of cytopathic effect in WI-38 cell culture tubes, rhinovirus type 13; assay type: cell-based; settings: Enterovirus; 12.5 μg/ml; WI-38 cells; read-out: Inhibition grade, Rhinovirus Type 13
Experimental: as §1, §2, §3

Rhinovirus Type 17 = experiment: Inhibition of cytopathic effect in WI-38 cell culture tubes, rhinovirus type 17; assay type: cell-based; settings: Enterovirus; 12.5 μg/ml; WI-38 cells; read-out: Inhibition grade, Rhinovirus Type 17
Experimental: as §1, §2, §3

Rhinovirus Type 56 = experiment: Inhibition of cytopathic effect in WI-38 cell culture tubes, rhinovirus type 56; assay type: cell-based; settings: Enterovirus; 12.5 μg/ml; WI-38 cells; read-out: Inhibition grade, Rhinovirus Type 56
Experimental: as §1, §2, §3

Rhinovirus Type 74 = experiment: Inhibition of cytopathic effect in WI-38 cell culture tubes, rhinovirus type 74; assay type: cell-based; settings: Enterovirus; 12.5 μg/ml; WI-38 cells; read-out: Inhibition grade, Rhinovirus Type 74
Experimental: as §1, §2, §3

Hanks Untyped = experiment: Inhibition of cytopathic effect in WI-38 cell culture tubes, Hanks Untyped; assay type: cell-based, rhinovirus; settings: Enterovirus; 12.5 μg/ml; WI-38 cells; read-out: Inhibition grade, Hanks Untyped
Experimental: as §1, §2, §3

Rhinovirus Type 60 = experiment: Inhibition of cytopathic effect in WI-38 cell culture tubes, rhinovirus type 60; assay type: cell-based; settings: Enterovirus; 12.5 μg/ml; WI-38 cells; read-out: Inhibition grade, Rhinovirus Type 60
Experimental: as §1, §2, §3

Rhinovirus Type 81 = experiment: Inhibition of cytopathic effect in WI-38 cell culture tubes, rhinovirus type 81; assay type: cell-based; settings: Enterovirus; 12.5 μg/ml; WI-38 cells; read-out: Inhibition grade, Rhinovirus Type 81
Experimental: as §1, §2, §3

Rhinovirus Type 39 = experiment: Inhibition of cytopathic effect in WI-38 cell culture tubes, rhinovirus type 39; assay type: cell-based; settings: Enterovirus; 12.5 μg/ml; WI-38 cells; read-out: Inhibition grade, Rhinovirus Type 39
Experimental: as §1, §2, §3

Rhinovirus Type 59 = experiment: Inhibition of cytopathic effect in WI-38 cell culture tubes, rhinovirus type 59; assay type: cell-based; settings: Enterovirus; 12.5 μg/ml; WI-38 cells; read-out: Inhibition grade, Rhinovirus Type 59
Experimental: as §1, §2, §3

Rhinovirus Type 29 = experiment: Inhibition of cytopathic effect in WI-38 cell culture tubes, rhinovirus type 29; assay type: cell-based; settings: Enterovirus; 12.5 μg/ml; WI-38 cells; read-out: Inhibition grade, Rhinovirus Type 29
Experimental: as §1, §2, §3

Rhinovirus Type 58 = experiment: Inhibition of cytopathic effect in WI-38 cell culture tubes, rhinovirus type 58; assay type: cell-based; settings: Enterovirus; 12.5 μg/ml; WI-38 cells; read-out: Inhibition grade, Rhinovirus Type 58
Experimental: as §1, §2, §3

Rhinovirus Type 4 = experiment: Inhibition of cytopathic effect in WI-38 cell culture tubes, rhinovirus type 4; assay type: cell-based; settings: Enterovirus; 12.5 μg/ml; WI-38 cells; read-out: Inhibition grade, Rhinovirus Type 4
Experimental: as §1, §2, §3

Rhinovirus Type 6 = experiment: Inhibition of cytopathic effect in WI-38 cell culture tubes, rhinovirus type 6; assay type: cell-based; settings: Enterovirus; 12.5 μg/ml; WI-38 cells; read-out: Inhibition grade, Rhinovirus Type 6
Experimental: as §1, §2, §3

Rhinovirus Type 75 = experiment: Inhibition of cytopathic effect in WI-38 cell culture tubes, rhinovirus type 75; assay type: cell-based; settings: Enterovirus; 12.5 μg/ml; WI-38 cells; read-out: Inhibition grade, Rhinovirus Type 75
Experimental: as §1, §2, §3

Rhinovirus Type 68 = experiment: Inhibition of cytopathic effect in WI-38 cell culture tubes, rhinovirus type 68; assay type: cell-based; settings: Enterovirus; 12.5 μg/ml; WI-38 cells; read-out: Inhibition grade, Rhinovirus Type 68
Experimental: as §1, §2, §3

Rhinovirus Type 8 = experiment: Inhibition of cytopathic effect in WI-38 cell culture tubes, rhinovirus type 8; assay type: cell-based; settings: Enterovirus; 12.5 μg/ml; WI-38 cells; read-out: Inhibition grade, Rhinovirus Type 8
Experimental: as §1, §2, §3

[6] = 600 mg/kg P.O. 3 h after IP challenge

## CS(=O)(=O)c1ccc(Oc2ccc(C(=O)c3ccccc3)cc2)nc1 [(4-((5-(methylsulfonyl)-2-pyridinyl)oxy)phenyl)phenylmethanone]
[1]
  number of test rhinoviruses against which the compound was graded "+": 13 test rhinoviruses
  number of test rhinoviruses against which the compound was graded "±": 3

## CS(=O)(=O)c1ccc(Oc2ccc(Br)cc2)nc1 [Example 29, 2-(4-bromophenoxy)-5-(methylsulfonyl)pyridine]
Rhinovirus type 5 (RV-5)
  EC50: 25 µg/mL (≈ 76.2 µM)
Cox A21; [6]
  Single Oral Dose X^2 (chi-square, deaths vs virus control): 5.275
Rhinovirus type 8 (RV-8)
  EC50: 6.25 µg/mL (≈ 19 µM)
[2]
  MCC: 50 µg/mL
[3]
  EC50: 0.625 µg/mL (≈ 1.9 µM)
Rhinovirus type 2 (RV-2)
  EC50: 0.625 µg/mL (≈ 1.9 µM)
[4]
  EC50: 0.625 µg/mL (≈ 1.9 µM)
[5]
  EC50: 5 µg/mL (≈ 15.2 µM)
Coxsackie A21 virus
  Continuous Oral Feeding X^2 (chi-square, deaths vs control): 20.885

## CS(=O)(=O)c1ccc(Oc2ccc(Cl)cc2)nc1 [Example 32, 2-(4-chlorophenoxy)-5-(methylsulfonyl)pyridine]
Rhinovirus Type 10
  inhibition at 12.5 µg/mL: ≥ 75%
Rhinovirus Type 64
  inhibition at 12.5 µg/mL: ≥ 75%
Cox A21; 200 mg/kg P.O. 3 h after IP challenge
  Single Oral Dose X^2 (chi-square, deaths vs virus control): 52.866
Rhinovirus Type 19
  inhibition at 12.5 µg/mL: ≥ 75%
Rhinovirus Type 21
  inhibition at 12.5 µg/mL: 50 to 74%
Rhinovirus Type 13
  inhibition at 12.5 µg/mL: < 50%
Rhinovirus Type 17
  inhibition at 12.5 µg/mL: ≥ 75%
Rhinovirus Type 56
  inhibition at 12.5 µg/mL: ≥ 75%
Rhinovirus Type 74
  inhibition at 12.5 µg/mL: ≥ 75%
[2]
  MCC: 50 µg/mL
Hanks Untyped
  inhibition at 12.5 µg/mL: ≥ 75%
Rhinovirus Type 60
  inhibition at 12.5 µg/mL: ≥ 75%
Rhinovirus Type 81
  inhibition at 12.5 µg/mL: 50 to 74%
Rhinovirus Type 39
  inhibition at 12.5 µg/mL: < 50%
[3]
  EC50: 1.25 µg/mL (≈ 4.41 µM)
Rhinovirus Type 59
  inhibition at 12.5 µg/mL: ≥ 75%
Rhinovirus Type 29
  inhibition at 12.5 µg/mL: ≥ 75%
Rhinovirus Type 58
  inhibition at 12.5 µg/mL: ≥ 75%
Rhinovirus Type 4
  inhibition at 12.5 µg/mL: ≥ 75%
Rhinovirus type 2 (RV-2)
  EC50: 2.5 µg/mL (≈ 8.81 µM)
Rhinovirus Type 6
  inhibition at 12.5 µg/mL: 50 to 74%
[4]
  EC50: 1.25 µg/mL (≈ 4.41 µM)
Rhinovirus Type 75
  inhibition at 12.5 µg/mL: < 50%
[5]
  EC50: 3.12 µg/mL (≈ 11 µM)
Rhinovirus Type 68
  inhibition at 12.5 µg/mL: ≥ 75%
Rhinovirus Type 8
  inhibition at 12.5 µg/mL: < 50%

## CCS(=O)(=O)c1ccc(Oc2ccc(Oc3ccccc3)cc2)nc1 [Example 44, 5-(ethylsulfonyl)-2-(4-phenoxyphenoxy)pyridine]
Cox A21; [6]
  Single Oral Dose X^2 (chi-square, deaths vs virus control): 0.196
Rhinovirus type 8 (RV-8)
  EC50: 6.25 µg/mL (≈ 17.6 µM)
[2]
  MCC: 6.25 µg/mL
[3]
  EC50: 6.25 µg/mL (≈ 17.6 µM)
Rhinovirus type 2 (RV-2)
  EC50: 3.12 µg/mL (≈ 8.79 µM)
[5]
  EC50: 3.12 µg/mL (≈ 8.79 µM)
Coxsackie A21 virus
  Continuous Oral Feeding X^2 (chi-square, deaths vs control): 1.58
